This is an account of results in patent publication US20250313555A1, “2-SUBSTITUTED THIAZOLE AND BENZOTHIAZOLE COMPOSITIONS AND METHODS AS DUX4 INHIBITORS” (ALTAY THERAPEUTICS, INC., priority 2022, published 2025).

Common to all, as to assay type: cell-based
Series [1] in a line: Cell cytotoxicity 50 assay (CC50), MB200 cells, cell titer glo. Particulars: human. The procedure:
Cell Cytotoxicity 50 Assay Protocol (CC50) MB200 cells were grown until 80% confluent in F10 media supplemented with rhFGF basic (10 ng/ml), 15% fetal bovine serum, 1% penicillin streptomycin, 1% amphotericin B, and 1 μM dexamethasone. Adherent MB200 cells growing on 10 cm plate were then trypsinized with 1 ml of trypsin. Once the cells detached from the plate, F10 media (10 mL) was added, and the cells were strained through a 70 μm cell strainer. The cells were counted using a mixture of 10 μL cell suspension with 10 μL of trypan blue. Once the total number of cells were counted, a dilution of 200 k/mL was prepared, and the cells were seeded with 10 k cells/well in a 96-well plate in triplicate, making sure to avoid seeding cells in the edges of the plate to avoid edge effects. Using a multichannel pipet, the 200 k/mL cell dilution (50 μL/well) was added into wells B2-B11, C2-C11, and D2-D11 in triplicate. Into a deep well block (DWB), the media for the appropriate cell line (450 μL/well) was added into wells 1-10. Into DWB well 2, 10 mM of drug solution (13.5 μL) was added, followed by an additional volume of the medium (225 μL). The well was pipetted up/down four times. A portion (225 μL) was transferred to well 3, and this process was repeated up to well 10. Using a multichannel pipet, a smaller portion (50 μL/well) was removed from all wells in the DWB and then dispensed on top of the cells in each corresponding row. After adding the drug, the plate was incubated at 37° C. for 72 h. Using a multi-channel pipet, pre-warmed cell titer glo reagent (Promega) (100 μL) was added into every well. After 5 minutes, the total luminescence was measured with a luminometer. CC50 was determined with GraphPad prism template.

Series [2] is described as follows: Cell cytotoxicity 50 assay (CC50), HEK cells. Particulars: human. The procedure:
Cell Cytotoxicity 50 Assay Protocol (CC50) Into a deep well block (DWB), the media for the appropriate cell line (450 μL/well) was added into wells 1-10. Into DWB well 2, 10 mM of drug solution (13.5 μL) was added, followed by an additional volume of the medium (225 μL). The well was pipetted up/down four times. A portion (225 μL) was transferred to well 3, and this process was repeated up to well 10. Using a multichannel pipet, a smaller portion (50 μL/well) was removed from all wells in the DWB and then dispensed on top of the cells in each corresponding row. After adding the drug, the plate was incubated at 37° C. for 72 h. Using a multi-channel pipet, pre-warmed cell titer glo reagent (Promega) (100 μL) was added into every well. After 5 minutes, the total luminescence was measured with a luminometer. CC50 was determined with GraphPad prism template.

The test system of a further series is MBD3L2 RNA. The series can be described thus: RNA isolation and qPCR to determine MBD3L2 RNA levels in FSHD cells. Particulars: 48 hrs. As for the experimental part: Protocol for RNA Isolation and qPCR to Determine MBD3L2 RNA Levels The protocol describes the process of isolating RNA from cultured cells, converting the RNA to complementary DNA (cDNA), and measuring target gene expression using a quantitative polymerase chain reaction (qPCR). The seed FSHD cells were dispensed into a six-well dish. One day after seeding, the DUX4 inhibitor (11 μM or 3.6 μM/well) was added to the cells. After another 48 hrs, the old media was removed from the cells. The cells were washed with 2 mL of warm phosphate buffered saline (PBS). The PBS was aspirated, and the cells were lysed in each well with 350 μL of RLT buffer+3.5 μL of beta-mercaptoethanol (BME). The lysates were added to fresh, RNAse-free, labeled Eppendorf tubes. The cells were then physically disrupted for […] at level 4 of the bead disrupter to ensure the release of the RNA. The RNA was collected according to standard procedures (i.e., Qiagen kit instructions) as discussed below. The RNA concentrations were standardized to […]. In a PCR tube, RNA (2 μg) in a new Eppendorf tube was diluted with RNase-free water to a 9.5 μL final volume of […] RNA. DNase was used to remove any DNA contamination. A DNase Master Mix was prepared from 1.5 μL/reaction DNase solution (1 unit/μL, Promega), 3 μL/reaction 5× RT buffer (i.e., 250 mM Tris-HCl (pH 8.3), 375 mM KCl, 15 mM MgCl2, and 500 μl 0.1 M DTT; Promega MMLV), and 1 μL/reaction RNase inhibitor solution (RNasin, 40 units/μL, Promega). The DNase Master Mix was added to the standardized RNA samples (5.5 μL/sample). The samples were mixed by agitation and briefly spun down by centrifuge. The samples were heated to 37° C. for 60 min, 80° C. for 5 min, and then cooled to 4° C. The samples were stored on ice until the addition of the next reagents. An RT Reaction Master Mix was prepared from 5 μL/reaction 5× RT buffer, 2 μL/reaction dNTP solution (2.5 mM in each nucleotide), 1 μL/reaction RNase inhibitor solution (RNasin, 40 units/μL, Promega), 1.6 μL/reaction M-MLV reverse transcriptase (200 units/μL, Promega), and 13.4 μL/reaction deionized, RNase-free water. The RT Reaction Master Mix was cooled on ice until use. A 50 μM solution of Random Primer 6 random hexanucleotides (2 μL) was added to each sample. The samples were mixed by agitation and briefly spun down by centrifuge. The samples were heated to 70° C. for 5 min and then cooled to 4° C. The RT Reaction Master Mix (23 μL) was added to each sample. The samples were mixed by agitation and briefly spun down by centrifuge. To convert the RNA to cDNA, the samples were heated to 42° C. for 60 min, 95° C. for 5 min, and then cooled to 4° C. The cDNA product mixture was diluted 5:1 with deionized water (40 μL+160 μL). The samples were run in triplicate, with a methyl-CpG-binding protein 3-like 2 (MBD3L2) target primer and a eukaryotic translation elongation factor 1-alpha (EEF1A) control primer. An qPCR Master Mix was prepared for each primer and stored on ice (4° C.) until use. The qPCR Master Mix included 10 μL/reaction SYBR Green Mix (2×) (ThermoFisher), 1 μL/reaction of the primer mix (i.e., the MBD3L2 PCR Primer mix or the EEF1A Primer mix), and 4 μL/reaction deionized, RNase-free water. To set up the qPCR plate, 15 μL of the appropriate qPCR Master Mix was added to the appropriate wells for each target/primer. After all the targets/primers have been added to the wells, 5 μL of the sample was added to the corresponding wells so that each well is 20 μL total. The plate was covered with a clear sheet. An qPCR run was set up (QuantStudio 5) with the following cycle: […]

Some results are limits rather than exact numbers.

Usually CC50 stands for the concentration giving 50% cytotoxicity. `CCC(=O)NCCCC(=O)Nc1ccc(-c2nc3ccccc3s2)cc1` [Compound 10]: the 50% cytotoxic concentration (CC50) at 72 h in series [1] and in series [2] was over 10 µM throughout. The “qPCR MBD3L2 Inhib at 11 µM” value in the series on MBD3L2 RNA is reported as “YES”.
Consider `O=C(CCCc1cnco1)Nc1ccc(-c2nc3cc(F)ccc3s2)cc1` [Compound 64], for which the CC50 at 72 h is over 10 µM in series [1] and 1 to 10 µM in series [2]. In addition, the “qPCR MBD3L2 Inhib at 11 µM” value in the series with MBD3L2 RNA is “YES”.
Take `O=C(CCN1C(=O)CCC1=O)Nc1ccc(-c2nc3ccccc3s2)o1` [Compound 24]: the CC50 at 72 h in series [1] and in series [2] was over 10 µM in each case.
As to `O=C(CCn1ccnn1)Nc1ccc(-c2nc3ccccc3s2)cc1` [Compound 48], the CC50 at 72 h in series [1] and in series [2] was over 10 µM in each case.
Regarding `CCOCCCC(=O)Nc1ccc(-c2nc3ccc(C)cc3s2)cc1` [Compound 17], the CC50 at 72 h in series [1] and in series [2] was 1 to 10 µM each time.
As to `Cc1ccc2nc(-c3ccc(NC(=O)C4CCC4)cc3)sc2c1` [Compound 29], the values for the 50% cytotoxic concentration (CC50) at 72 h in series [1] and in series [2] were 1 to 10 µM and over 10 µM, respectively. Moreover, the “qPCR MBD3L2 Inhib at 11 µM” value in the series with MBD3L2 RNA is “YES”.
The matching figures for `O=C(CCCc1cnco1)NC1CCC(c2nc3ccccc3s2)CC1` (stereo not drawn) [Compound 67]: over 10 µM, over 10 µM and “YES”.
Regarding `O=C(CCN1C(=O)CCC1=O)Nc1ccc(-c2nc3ccccc3s2)cn1` [Compound 6], the CC50 at 72 h in series [1] and in series [2] was over 10 µM throughout.
As to `CC(=O)NCCC(=O)Nc1ccc(-c2nc3ccc(C)cc3s2)cc1` [Compound 35], the CC50 at 72 h in series [1] and in series [2] was over 10 µM throughout.
As for `O=C(CCc1ncccn1)Nc1ccc(-c2nc3ccccc3s2)cc1` [Compound 51], the half-maximal cytotoxic concentration (CC50) at 72 h in series [1] and in series [2] was over 10 µM each time.
On to `CC(=O)NCCC(=O)Nc1ccc(-c2nc3ccc(F)cc3s2)cc1` [Compound 45], for which the 50% cytotoxic concentration (CC50) at 72 h in series [1] and in series [2] was over 10 µM in each case.
Take `Cc1ccc2nc(-c3ccc(NC(=O)CCN4C(=O)CCC4=O)cc3)sc2c1` [Compound 2]: the CC50 at 72 h was 1 to 10 µM in series [1] and over 10 µM in series [2].
For `O=C(CCCc1cnco1)Nc1ccc(-c2nc3ccccc3s2)cc1` [Compound 63] the same measures were over 10 µM and 1 to 10 µM.
For `CC(=O)NCCC(=O)Nc1ccc(-c2nc3cc(Cl)ccc3s2)cc1` [Compound 47] the same measures were over 10 µM and over 10 µM.
For `O=C(CCc1cocn1)Nc1ccc(-c2nc3ccccc3s2)cc1` [Compound 57] the same measures were over 10 µM and over 10 µM.
Take `CC(=O)NCCCC(=O)Nc1ccc(-c2ncc(-c3ccccc3)s2)cc1` [Compound 132]: the 50% cytotoxic concentration (CC50) at 72 h in series [1] and in series [2] was over 10 µM in each case.
`CCOCCCC(=O)Nc1ccc(-c2nc3ccccc3s2)cc1` [Compound 3]: the cytotoxic concentration (CC50) at 72 h in series [1] and in series [2] was 1 to 10 µM throughout.
In the case of `CC(=O)NCCC(=O)Nc1coc(-c2nc3ccccc3s2)c1` [Compound 42], the cytotoxic concentration (CC50) at 72 h in series [1] and in series [2] was over 10 µM each time.
As to `O=C(CCCc1cnco1)Nc1coc(-c2nc3ccccc3s2)c1` [Compound 68], the CC50 at 72 h in series [1] and in series [2] was over 10 µM in each case.
On to `O=C1CCC(=O)N1[C@H]1C[C@H](C(=O)Nc2ccc(-c3nc4ccccc4s3)cc2)C1` [Compound 96], for which the CC50 at 72 h in series [1] and in series [2] was over 10 µM throughout.
Consider `CC(=O)NCCCC(=O)Nc1ccc(-c2ncc(Cl)s2)cc1` [Compound 78], for which the CC50 at 72 h in series [1] and in series [2] was over 10 µM each time.
Regarding `O=C(CCc1ccncc1)Nc1ccc(-c2nc3ccccc3s2)cc1` [Compound 12], the half-maximal cytotoxic concentration (CC50) at 72 h in series [1] and in series [2] was over 10 µM in each case.
In the case of `CC(=O)OCCCC(=O)Nc1ccc(-c2nc3ccccc3s2)cc1` [Compound 19], the half-maximal cytotoxic concentration (CC50) at 72 h in series [1] and in series [2] was over 10 µM each time.
As to `O=C(CCCc1cocn1)Nc1ccc(-c2nc3cc(F)ccc3s2)cc1` [Compound 99], the CC50 at 72 h in series [1] and in series [2] was over 10 µM in each case.
Consider `N#CCCCC(=O)Nc1ccc(-c2nc3ccccc3s2)cc1` [Compound 124], for which the CC50 at 72 h in series [1] and in series [2] was over 10 µM in each case.
In the case of `CC(=O)NC1CC1C(=O)Nc1ccc(-c2nc3ccccc3s2)cc1` (stereo not drawn) [Compound 100], the half-maximal cytotoxic concentration (CC50) at 72 h in series [1] and in series [2] was over 10 µM throughout.
For `O=C(CCCN1C(=O)CCC1=O)Nc1nc2ccccc2s1` [Compound 82], the cytotoxic concentration (CC50) at 72 h in series [1] and in series [2] was over 10 µM in each case.
On to `O=C(CCC1CCC(=O)N1)Nc1ccc(-c2nc3ccccc3s2)cc1` (stereo not drawn) [Compound 176], for which the values for the CC50 at 72 h in series [1] and in series [2] were 1 to 10 µM and over 10 µM, respectively.
For `O=C(CCCN1C(=O)CCC1=O)Nc1ccc(-c2nc3ccccc3s2)o1` [Compound 168], the CC50 at 72 h in series [1] and in series [2] was over 10 µM each time.
In the case of `CC(=O)NCCCC(=O)Nc1ccc(-c2nc3ccccc3s2)cc1C` [Compound 125], the CC50 at 72 h in series [1] and in series [2] was over 10 µM each time.
As to `CC(=O)NCCC(=O)Nc1ccc(-c2nc3cnccc3s2)cc1` [Compound 58], the CC50 at 72 h in series [1] and in series [2] was over 10 µM throughout.
Take `CC(=O)CCCC(=O)Nc1ccc(-c2nc3ccccc3s2)cc1` [Compound 20]: the CC50 at 72 h in series [1] and in series [2] was over 10 µM each time.
In the case of `O=C(CCN1CCCC1=O)Nc1ccc(C(=O)c2nc3ccccc3s2)cc1` [Compound 50], the cytotoxic concentration (CC50) at 72 h in series [1] and in series [2] was over 10 µM each time.
Consider `CC(=O)CCCC(=O)Nc1ccc(-c2nc3ccc(C)cc3s2)cc1` [Compound 4], for which the cytotoxic concentration (CC50) at 72 h in series [1] and in series [2] was over 10 µM throughout.
